Data reported in patent US6706664B1, “Benzoxazole compounds, process for the preparation thereof and herbicides” (UBE Industries, Ltd., priority 1999, dated 2004).

Legend:
Test in all cases: Soil treatment test for upland field
Set-up in all cases: key: 0: normal development; 1: Less damaged; 2: Slightly damaged; 3: Moderately damaged; 4: Severely damaged; 5: All killed
Details in all cases: 500 g/ha, glass house 25° C., 3 weeks
corn = type: in vivo
Description: (§1) (0: normal development, 1: Less damaged, 2: Slightly damaged, 3: Moderately damaged, 4: Severely damaged, 5: All killed).
(§2) Wagner pots, each having an area of 1/5000 are, were packed with Ube soil (alluvial soil), and then each seed of corn, soybean, cotton, wheat, solgum, sugar beat, Large crabgrass, barnyardgrass, green foxtail, blackgrass, annual bluegrass, common lambsquartes, livid amaranth and velvetleaf were planted and covered with soil.
(§3) Each wettable powder of the desired compounds (I) shown in Table 1 prepared in accordance with Example 2 was diluted with water containing a surfactant (0.05%) and uniformly sprayed on the surface of each soil so that an effective concentration of the compound (I) in each herbicide became 500 g/ha. These plants were controlled in a glass house at an average temperature of 25° C. for 3 weeks, and then herbicidal effects thereof were investigated.
(§4) The herbicidal effects were evaluated according to the evaluation method described in the above (1).

solgum = type: in vivo
Description: as §1, §2, §3, §4

soybean = type: in vivo
Description: as §1, §2, §3, §4

sugar beat = type: in vivo
Description: as §1, §2, §3, §4

wheat = type: in vivo
Description: as §1, §2, §3, §4

Large crabgrass = type: in vivo, Digitaria adscendens
Description: as §1, §2, §3, §4

barnyardgrass = type: in vivo, Echinochloa crusgalli
Description: as §1, §2, §3, §4

green foxtail = type: in vivo, Setaria viridis
Description: as §1, §2, §3, §4

annual bluegrass = type: in vivo, Poa annua
Description: as §1, §2, §3, §4

common lambsquartes = type: in vivo, Chenopodium album
Description: as §1, §2, §3, §4

livid amaranth = type: in vivo, Amaranthus lividus
Description: as §1, §2, §3, §4

velvetleaf = type: in vivo, Abutilon theophrasti
Description: as §1, §2, §3, §4

cotton = type: in vivo
Description: as §1, §2, §3, §4

blackgrass = type: in vivo, Alopecurus aegualis
Description: as §1, §2, §3, §4

Row | Compound | Effects Corn (corn) | Effects Solgum (solgum) | Effects Soybean (soybean) | Effects Sugar beat (sugar beat) | Effects Wheat (wheat) | Effects Large crabgrass (Large crabgrass) | Effects Barnyardgrass (barnyardgrass) | Effects Green foxtail (green foxtail) | Effects Annual bluegrass (annual bluegrass) | Effects Common lambsquarters (common lambsquartes) | Effects Livid amaranth (livid amaranth) | Effects Velvetleaf (velvetleaf) | Effects Cotton (cotton) | Effects Blackgrass (blackgrass)
1 | CCC(Oc1cccc(C(F)(F)F)c1)c1nc2ccc(C(F)(F)F)cc2o1 (stereo not drawn) [Compound 94] | 0 | 0 | 0 | 2 | 0 | 5 | 3 | 4 | 1 | 1 | 5 | 0 |  | 
2 | CCC(Oc1ccc(F)c(C(F)(F)F)c1)c1nc2cc(Cl)c([N+](=O)[O-])cc2o1 (stereo not drawn) [Compound 334, 1-(5-chloro-6-nitrobenzoxazol-2-yl)-1-(4-fluoro-3-(trifluoromethyl)phenoxy)propane] | 0 | 1 | 0 | 3 | 2 | 5 | 3 | 5 | 4 | 2 | 5 |  | 1 | 4
3 | CCC(Oc1ccc(Cl)c(C#N)c1)c1nc2cc(S(C)(=O)=O)ccc2o1 (stereo not drawn) [Compound 509] | 0 | 0 | 0 | 5 | 0 | 2 |  | 3 |  | 5 | 5 | 3 | 0 | 
4 | CCC(Oc1ccc(F)c(C(F)(F)F)c1)c1nc2cc(S(C)(=O)=O)c(C)cc2o1 (stereo not drawn) [Compound 487] | 0 | 0 | 0 | 5 | 0 | 5 | 2 | 3 | 4 | 4 | 5 | 3 | 0 | 
5 | CCCC(Oc1cccc(C#N)c1)c1nc2cc(S(C)(=O)=O)ccc2o1 (stereo not drawn) [Compound 508] | 0 | 0 | 0 | 4 | 0 | 4 |  | 5 | 2 | 3 | 5 | 3 | 0 | 
6 | CCC(Oc1cccc(C(F)(F)F)c1)c1nc2cc(I)ccc2o1 (stereo not drawn) [Compound 172] | 0 | 0 | 0 | 0 | 0 | 5 |  | 5 | 3 |  | 5 |  | 0 | 1
7 | CCC(Oc1ccc(F)c(C(F)(F)F)c1)c1nc2ccc([N+](=O)[O-])cc2o1 (stereo not drawn) [Compound 39] | 0 | 0 | 0 | 2 | 0 | 4 |  | 4 | 4 | 3 | 5 |  | 1 | 
8 | CCC(Oc1ccc(F)c(C(F)(F)F)c1)c1nc2cc(S(C)(=O)=O)ccc2o1 (stereo not drawn) [Compound 215] | 0 | 0 | 0 | 5 | 0 | 5 |  | 4 | 3 | 4 | 5 | 5 | 1 | 
9 | CCC(Oc1cccc(C(F)(F)F)c1)c1nc2cc(S(C)(=O)=O)ccc2o1 (stereo not drawn) [Compound 216] | 0 | 0 | 0 | 5 | 0 | 4 | 3 | 5 | 2 | 5 | 5 | 3 | 0 | 
10 | CCCC(Oc1cccc(C#N)c1)c1nc2cc(Cl)c(C)cc2o1 (stereo not drawn) [Compound 484] | 1 | 0 | 0 | 5 | 0 | 5 |  | 5 | 5 | 5 | 5 | 5 | 0 | 
11 | CCC(Oc1cccc(C#N)c1)c1nc2cc(Cl)c(C)cc2o1 (stereo not drawn) [Compound 481] | 0 | 0 | 0 | 3 | 0 | 5 |  | 4 | 2 | 2 | 4 | 3 | 0 | 
12 | CCC(Oc1cccc(C#N)c1)c1nc2cc(S(C)(=O)=O)ccc2o1 (stereo not drawn) [Compound 507] | 0 | 0 | 0 | 0 | 0 |  |  | 3 |  | 5 | 5 |  | 0 | 
